Where two headings read alike, the source gives them in different places.
What was measured:
[1] = molecular target: T1, peripheral vascular β-receptors (Felis catus, UniProt Q9TST5); experiment: Peripheral vascular β-blockade (peripheral vascular resistance, vasodilator response to isoprenaline) in the reserpinized cat; assay type: in vivo; settings: read-out: β-blockade Peripheral vascular resistance ED50
T1 construct: from tissue; host or cells: vascular bed of the blood-perfused leg (paw excluded) of the anaesthetized, reserpinized cat (in vivo)
Method: The compounds prepared according to examples 1-18 were evaluated for intrinsic activity and blocking effect on heart rate and for peripheral vasodilator response to isoprenaline in the cat. Alprenolol was used as a reference substance.
(§1) Cats weighing between […] were anaesthetized with 30 mg/kg pentobarbital sodium i.p. The cats had been pretreated with reserpine, 5 mg/kg i.m. about 18 hours before the experiment. Bilateral vagotomy was performed before the start of the experiment.
(§2) The heart rate was recorded on an Offner cardiotachometer triggered by the EKG-complex. Mean intraarterial blood pressure was recorded from a carotid artery. The peripheral resistance was measured in one of the legs of the cat in the following way: The femoral artery was opened in the inguinal region and the leg was perfused by blood delivered through a sigma motor pump at constant rate. The flow resistance (the pressure) as recorded via a strain gauge transducer connected to the catheter distally to the pump. The paw was excluded from the circulation by a tight ligature around the ankle. Intravenously injected isoprenaline increased the heart rate and reduced the perfusion pressure. An isoprenaline dose giving 70-80% of the maximal chronotropic response was determined. This dose (usually 0.1 μg/kg) was then repeated with 20 minute intervals. Ten minutes before each isoprenaline injection, the tested substances were administered intravenously for two minutes, starting with a dose of 0.01 mg/kg and increasing each subsequent dose fourfold. The intrinsic effects of the test substances were determined. The dose producing 50% blockade of the isoprenaline responses were evaluated from the plotted log dose-per cent blockade diagrams.

[2] = molecular target: T2, β-receptors of the heart (Felis catus, UniProt Q9TST6); experiment: Intrinsic activity and β-blockade of heart rate response to isoprenaline in the reserpinized cat; assay type: in vivo; settings: for ED50: read-out: β-blockade Heart rate ED50; for Emax: read-out: Intrinsic activity % of isoprenaline heart rate response
T2 construct: Intravenously injected isoprenaline increased the heart rate and reduced the perfusion pressure; from tissue; host or cells: heart of the anaesthetized, reserpinized, vagotomized cat (in vivo)
Method: Alprenolol was used as a reference substance.
as §1
as §2, with “Intravenously injected isoprenaline increased the heart rate and reduced the perfusion pressure.” left out, “This dose (usually 0.1 μg/kg) was then repeated with 20 minute intervals.” left out

[3] = reserpinized cat, intravenous, 50% blockade of isoprenaline response (usually 0.1 μg/kg)

T1 sequence (Q9TST5 whole entry, the tested form may be a part): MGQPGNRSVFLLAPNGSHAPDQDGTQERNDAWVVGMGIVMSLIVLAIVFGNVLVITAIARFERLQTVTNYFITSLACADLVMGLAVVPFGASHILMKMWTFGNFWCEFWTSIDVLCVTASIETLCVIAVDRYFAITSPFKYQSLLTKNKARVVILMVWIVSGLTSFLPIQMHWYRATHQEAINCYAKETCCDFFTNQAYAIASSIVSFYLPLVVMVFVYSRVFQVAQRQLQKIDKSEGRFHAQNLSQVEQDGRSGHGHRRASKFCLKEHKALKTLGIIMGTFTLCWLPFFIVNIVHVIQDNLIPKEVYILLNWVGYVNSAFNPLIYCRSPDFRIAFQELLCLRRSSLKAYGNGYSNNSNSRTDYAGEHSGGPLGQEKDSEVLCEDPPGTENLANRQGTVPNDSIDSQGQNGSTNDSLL
T2 sequence (Q9TST6 whole entry, the tested form may be a part): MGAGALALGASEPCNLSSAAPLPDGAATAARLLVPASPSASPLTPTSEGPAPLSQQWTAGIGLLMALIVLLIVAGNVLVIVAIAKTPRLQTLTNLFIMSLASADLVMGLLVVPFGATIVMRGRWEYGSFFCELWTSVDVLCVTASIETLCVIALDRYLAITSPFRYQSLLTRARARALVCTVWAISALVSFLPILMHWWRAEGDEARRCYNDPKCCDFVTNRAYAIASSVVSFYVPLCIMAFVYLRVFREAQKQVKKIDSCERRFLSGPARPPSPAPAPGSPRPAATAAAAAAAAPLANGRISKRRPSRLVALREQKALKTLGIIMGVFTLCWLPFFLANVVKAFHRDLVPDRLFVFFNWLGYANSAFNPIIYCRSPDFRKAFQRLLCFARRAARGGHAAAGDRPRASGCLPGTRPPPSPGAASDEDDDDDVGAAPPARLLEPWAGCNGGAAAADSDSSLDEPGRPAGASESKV

SMILES	ED50 [1, 3] [mg/kg]	ED50 [2, 3] [mg/kg]	Emax ([2]; reserpinized cat, intravenous) [%]	ED50 ([1]; cat, iv) [mg/kg]	ED50 ([2]; cat, iv) [mg/kg]	Emax ([2]; iv) [%]
CNC(=O)OCCc1ccc(OCC(O)CNC(C)C)c(Cl)c1 (stereo not shown) [CH3 NHCOOC2 H4, Cl, 1-Isopropylamino-3-[2-chloro-4-(2-methylcarbamoyloxyethyl)-phenoxy]-propanol-2]	1.8	0.3	0			
CC(C)NCC(O)COc1ccc(OCCOC(=O)N(C)C)cc1Cl (stereo not shown) [(CH3)2 NCOOC2 H4 O, Cl, 1-Isopropylamino-3-[2-chloro-4-(2-dimethylcarbamoyloxyethoxy)-phenoxy]-propanol-2]	1.7	0.1	5			
CC(C)NCC(O)COc1ccc(CCNC(N)=O)cc1Cl (stereo not shown) [H2 NCONHC2 H4, Cl, 1-Isopropylamino-3-[2-chloro-4-(2-carbamoylaminoethyl)phenoxy]-propanol-2]	2.6	0.4	0			
CNC(=O)OCCc1ccc(OCC(O)CNC(C)C)cc1 (stereo not shown) [CH3 NHCOOC2 H4, H, 1-Isopropylamino-3-[4-(2-methylcarbamoyloxyethyl)-phenoxy]-propanol-2]	2.4	0.4	0			
CNC(=O)OCCOc1ccc(OCC(O)CNC(C)C)cc1 (stereo not shown) [CH3 NHCOOC2 H4 O, H, 1-isopropylamino-3-[4-(2-methylcarbamoyloxyethoxy)-phenoxy]-propanol-2]	> 8.5	0.5	25			
CC(C)NCC(O)COc1ccc(CCNC(N)=O)cc1 (stereo not shown) [H2 NCONHC2 H4, H]	14	0.4	0			
C=CCc1ccccc1OCC(O)CNC(C)C (stereo not shown) [alprenolol, Alprenolol, reference compound]			20			
CC(C)NCC(O)COc1ccc(OCCOC(N)=O)cc1 (stereo not shown) [H2 NCOOC2 H5 O, H, 1-Isopropylamino-3-[4-(2-carbamoyloxyethoxy)-phenoxy]-propanol-2]				8	0.4	40
